Data reported in PMC11144196, “Structural basis for human mitochondrial tRNA maturation” (Nature Communications, 2024).
One block for each molecule: values may come before it.

Legend:
[1] = biological target: T1, TRNT1 (Homo sapiens, UniProt Q96Q11); assay: differential scanning fluorimetry (SYPRO Orange); assay type: binding; conditions: 5 uM protein, pH 7.5, 150 mM NaCl; thermal stabilisation
T1 construct: residues 42-434, no mitochondrial transport signal; N-terminal His6-TEV tag cleaved; E. coli KRX
T1 sequence (Q96Q11 42-434): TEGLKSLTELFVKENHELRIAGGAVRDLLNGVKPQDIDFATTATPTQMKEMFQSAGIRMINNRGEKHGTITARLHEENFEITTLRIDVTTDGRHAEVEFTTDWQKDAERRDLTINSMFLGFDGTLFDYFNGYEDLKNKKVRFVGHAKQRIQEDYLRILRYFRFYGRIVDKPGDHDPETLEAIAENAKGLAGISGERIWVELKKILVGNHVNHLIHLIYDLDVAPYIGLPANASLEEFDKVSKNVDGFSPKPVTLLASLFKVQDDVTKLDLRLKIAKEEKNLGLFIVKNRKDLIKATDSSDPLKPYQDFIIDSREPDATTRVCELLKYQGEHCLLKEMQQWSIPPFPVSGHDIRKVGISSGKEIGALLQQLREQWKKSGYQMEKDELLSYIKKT

[2] = biological target: T2, TRMT10C/SDR5C1 complex (SAM/SAH site in TRMT10C) (Homo sapiens, UniProt Q7L0Y3); assay: 3H-methyl transfer to pre-tRNA, scintillation counting; assay type: biochemical; conditions: pre-tRNA-Ile (G9) or pre-tRNA-His-Ser (A9), pH 8.5, 5 mM MgCl2, 37 °C; labelled compound
T2 construct: TRMT10C residues 40-403 (no mitochondrial transport signal) co-expressed with SDR5C1 residues 1-261 in E. coli; 2:4 TRMT10C:SDR5C1; HisTrap purified; with 3-hydroxyacyl-CoA dehydrogenase type-2
T2 sequence (Q7L0Y3 40-403): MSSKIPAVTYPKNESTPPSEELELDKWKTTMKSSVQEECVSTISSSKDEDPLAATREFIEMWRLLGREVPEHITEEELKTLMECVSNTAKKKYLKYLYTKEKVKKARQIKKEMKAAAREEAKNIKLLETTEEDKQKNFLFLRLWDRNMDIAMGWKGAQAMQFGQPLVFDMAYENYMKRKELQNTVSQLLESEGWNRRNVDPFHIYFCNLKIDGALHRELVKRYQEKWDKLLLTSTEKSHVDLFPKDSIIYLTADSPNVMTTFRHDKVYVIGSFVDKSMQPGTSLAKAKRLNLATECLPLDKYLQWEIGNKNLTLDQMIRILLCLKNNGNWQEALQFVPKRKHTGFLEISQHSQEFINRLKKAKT
T2 sequence (Q99714 1-261 partner): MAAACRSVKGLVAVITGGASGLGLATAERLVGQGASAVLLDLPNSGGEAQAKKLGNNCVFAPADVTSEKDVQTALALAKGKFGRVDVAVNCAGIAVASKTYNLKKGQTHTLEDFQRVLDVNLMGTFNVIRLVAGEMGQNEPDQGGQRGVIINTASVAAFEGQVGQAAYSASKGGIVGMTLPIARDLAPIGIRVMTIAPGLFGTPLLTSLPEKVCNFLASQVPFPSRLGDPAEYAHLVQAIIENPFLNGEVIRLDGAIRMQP

[3] = biological target: T2, TRMT10C/SDR5C1 complex (SAM/SAH site in TRMT10C); assay: differential scanning fluorimetry (SYPRO Orange); assay type: binding; conditions: 5 uM protein, pH 7.5, 150 mM NaCl; thermal stabilisation
[4] = biological target: T2, TRMT10C/SDR5C1 complex (SAM/SAH site in TRMT10C); assay: cryo-EM structure; assay type: binding; conditions: methyltransferase active site of TRMT10C; with NADH and pre-tRNA-Ile (8CBO); also with PRORP D479A (8CBK), ELAC2 H548A (8CBL) or TRNT1 (8CBM)
[5] = biological target: T1, TRNT1; assay: cryo-EM structure; assay type: binding; conditions: TRNT1 active site; complex with TRMT10C(SAH)/SDR5C1(NADH)/tRNA-Ile; 0.5 mM CDP, pH 8.0
[6] = biological target: T3, TRMT10C/SDR5C1 complex (NADH site in SDR5C1) (Homo sapiens, UniProt Q99714); assay: differential scanning fluorimetry (SYPRO Orange); assay type: binding; conditions: 5 uM protein, pH 7.5, 150 mM NaCl; thermal stabilisation
T3 construct: gene HSD17B10; SDR5C1 residues 1-261 co-expressed with TRMT10C residues 40-403 in E. coli; SDR5C1 tetramer; HisTrap purified; with tRNA methyltransferase 10 homolog C
T3 sequence (Q99714 1-261): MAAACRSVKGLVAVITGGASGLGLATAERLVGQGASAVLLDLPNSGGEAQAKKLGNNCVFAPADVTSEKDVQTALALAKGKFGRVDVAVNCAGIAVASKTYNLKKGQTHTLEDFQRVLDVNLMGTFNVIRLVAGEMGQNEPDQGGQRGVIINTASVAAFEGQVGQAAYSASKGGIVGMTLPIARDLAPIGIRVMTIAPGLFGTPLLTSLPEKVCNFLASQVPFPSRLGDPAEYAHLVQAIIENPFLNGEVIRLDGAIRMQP
T3 sequence (Q7L0Y3 40-403 partner): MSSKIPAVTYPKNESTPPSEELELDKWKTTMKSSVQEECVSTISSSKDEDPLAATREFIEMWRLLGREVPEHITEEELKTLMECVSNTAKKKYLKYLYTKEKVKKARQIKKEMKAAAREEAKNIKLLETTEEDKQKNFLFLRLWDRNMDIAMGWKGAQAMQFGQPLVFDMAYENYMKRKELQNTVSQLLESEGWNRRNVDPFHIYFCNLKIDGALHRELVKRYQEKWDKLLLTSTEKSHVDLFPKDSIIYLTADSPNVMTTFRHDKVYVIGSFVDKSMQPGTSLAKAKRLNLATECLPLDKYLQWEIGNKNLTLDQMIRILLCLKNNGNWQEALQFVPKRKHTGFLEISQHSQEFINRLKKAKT

[7] = biological target: T4, ELAC2 H548A (residues 31-826) (human, UniProt Q9BQ52 31-826, H548A); assay: cryo-EM structure; Complex 3: 1 uM TRMT10C/SDR5C1, 10 uM SAH, 10 uM NADH, 5 uM pre-tRNA^His(0,Ser), then 5 uM ELAC2 H548A; 50 mM Tris pH 8.0, 100 mM NaCl, 1 mM TCEP; ELAC2 sits on the pre-tRNA held by the subcomplex; conditions: both partners purified
T4 construct: human ELAC2 (long-form RNase Z), UniProt Q9BQ52, residues 31-826; pET28a-derived vector, His6-TEV site; treated with TEV protease; also called mt-RNase Z; source: E. coli KRX, purified like WT (HisTrap, Resource Q, TEV, SEC); not shown: His6, N-terminal, cleaved
T4 sequence (looked up): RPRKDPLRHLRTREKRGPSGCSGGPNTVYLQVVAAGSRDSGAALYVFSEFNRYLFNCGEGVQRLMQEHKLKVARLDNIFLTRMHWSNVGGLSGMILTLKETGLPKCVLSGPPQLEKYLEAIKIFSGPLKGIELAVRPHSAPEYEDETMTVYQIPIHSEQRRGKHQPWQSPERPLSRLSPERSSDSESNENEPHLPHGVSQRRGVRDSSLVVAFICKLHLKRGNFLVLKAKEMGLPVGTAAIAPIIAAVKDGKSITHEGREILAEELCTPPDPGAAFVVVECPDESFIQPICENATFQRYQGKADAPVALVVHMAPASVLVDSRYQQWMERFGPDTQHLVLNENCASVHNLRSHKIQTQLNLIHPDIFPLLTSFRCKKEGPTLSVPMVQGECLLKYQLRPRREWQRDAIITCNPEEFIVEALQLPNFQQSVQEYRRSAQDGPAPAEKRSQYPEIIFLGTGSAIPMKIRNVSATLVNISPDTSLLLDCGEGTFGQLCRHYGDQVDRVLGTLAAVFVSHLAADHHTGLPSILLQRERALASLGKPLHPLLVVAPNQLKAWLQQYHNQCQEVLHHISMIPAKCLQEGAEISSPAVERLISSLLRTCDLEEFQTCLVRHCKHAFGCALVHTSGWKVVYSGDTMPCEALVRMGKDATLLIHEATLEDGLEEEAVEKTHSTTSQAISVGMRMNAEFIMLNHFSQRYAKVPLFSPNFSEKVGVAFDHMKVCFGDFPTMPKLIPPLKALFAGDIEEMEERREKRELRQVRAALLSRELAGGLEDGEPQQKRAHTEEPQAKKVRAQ

[8] = biological target: T5, PRORP D479A (residues 45-583) (human, UniProt O15091 45-583, D479A); assay: cryo-EM structure; Complex 2: 4 uM TRMT10C/SDR5C1, 40 uM SAH, 40 uM NADH, 20 uM pre-tRNA^His-Ser, then 10 uM PRORP D479A; 50 mM Tris pH 8.0, 100 mM NaCl, 1 mM TCEP; PRORP sits on the pre-tRNA held by the subcomplex; conditions: both partners purified
T5 construct: human PRORP (protein-only RNase P endoribonuclease), UniProt O15091, residues 45-583; pET28a-derived vector, His6-TEV site; treated with TEV protease; source: E. coli BL21(DE3) Rosetta, purified like WT (HisTrap, TEV, SEC); not shown: His6, N-terminal, cleaved
T5 sequence (looked up): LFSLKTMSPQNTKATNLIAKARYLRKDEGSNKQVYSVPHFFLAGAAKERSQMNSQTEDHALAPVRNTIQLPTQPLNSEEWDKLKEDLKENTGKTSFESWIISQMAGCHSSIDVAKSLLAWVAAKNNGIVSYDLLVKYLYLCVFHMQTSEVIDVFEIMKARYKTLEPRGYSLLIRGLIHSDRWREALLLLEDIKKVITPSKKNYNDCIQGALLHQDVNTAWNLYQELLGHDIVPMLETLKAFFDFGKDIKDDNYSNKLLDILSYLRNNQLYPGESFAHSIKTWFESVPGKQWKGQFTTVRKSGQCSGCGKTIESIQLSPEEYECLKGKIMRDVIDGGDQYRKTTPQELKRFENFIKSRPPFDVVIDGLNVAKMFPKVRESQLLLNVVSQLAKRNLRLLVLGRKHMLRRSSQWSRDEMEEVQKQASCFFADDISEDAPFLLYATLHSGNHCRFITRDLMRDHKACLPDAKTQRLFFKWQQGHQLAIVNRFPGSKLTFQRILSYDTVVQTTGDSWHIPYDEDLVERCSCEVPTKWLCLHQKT

Molecule: Nc1ncnc2c1ncn2[C@@H]1O[C@H](COP(=O)(O)OP(=O)(O)OP(=O)(O)O)[C@@H](O)[C@H]1O [ATP]
Tm [1]: CTP, ATP or CDP to TRNT1 stabilised these enzymes

Molecule: C[S+](CC[C@H](N)C(=O)O)C[C@H]1O[C@@H](n2cnc3c(N)ncnc32)[C@H](O)[C@@H]1O (stereo partly shown) [SAM]
3H-methyl transfer to pre-tRNA, scintillation counting [2]: Methylation assays, using ^3H-SAM as methyl donor, showed that the TRMT10C/SDR5C1 complex methylates

Molecule: Nc1ncnc2c1ncn2[C@@H]1O[C@H](CSCC[C@H](N)C(=O)O)[C@@H](O)[C@H]1O [SAH]
Tm [3]: addition of co-factors or co-factor analogues, i.e. SAH to TRMT10C
cryo-EM structure [4]: In all the structures, the TRMT10C catalytic pocket contains SAH

Molecule: Nc1ccn([C@@H]2O[C@H](COP(=O)(O)OP(=O)(O)O)[C@@H](O)[C@H]2O)c(=O)n1 [CDP]
Tm [1]: CTP, ATP or CDP to TRNT1 stabilised these enzymes
cryo-EM structure [5]: a molecule of CDP that is likely π-stacked with the substrate A73 nucleotide

Molecule: NC(=O)C1=CN([C@@H]2O[C@H](COP(=O)(O)OP(=O)(O)OC[C@H]3O[C@@H](n4cnc5c(N)ncnc54)[C@H](O)[C@@H]3O)[C@@H](O)[C@H]2O)C=CC1 [NADH]
Tm [6]: NADH to SDR5C1 and CTP, ATP or CDP to TRNT1 stabilised these enzymes

Molecule: Nc1ccn([C@@H]2O[C@H](COP(=O)(O)OP(=O)(O)OP(=O)(O)O)[C@@H](O)[C@H]2O)c(=O)n1 [CTP]
Tm [1]: CTP, ATP or CDP to TRNT1 stabilised these enzymes

binding result [7]: binds
binding result [8]: binds
B1: TRMT10C (residues 40-403, without the mitochondrial transport signal) (enzyme, human, UniProt Q7L0Y3 40-403, looked up)
chain: MSSKIPAVTYPKNESTPPSEELELDKWKTTMKSSVQEECVSTISSSKDEDPLAATREFIEMWRLLGREVPEHITEEELKTLMECVSNTAKKKYLKYLYTKEKVKKARQIKKEMKAAAREEAKNIKLLETTEEDKQKNFLFLRLWDRNMDIAMGWKGAQAMQFGQPLVFDMAYENYMKRKELQNTVSQLLESEGWNRRNVDPFHIYFCNLKIDGALHRELVKRYQEKWDKLLLTSTEKSHVDLFPKDSIIYLTADSPNVMTTFRHDKVYVIGSFVDKSMQPGTSLAKAKRLNLATECLPLDKYLQWEIGNKNLTLDQMIRILLCLKNNGNWQEALQFVPKRKHTGFLEISQHSQEFINRLKKAKT
notes: human TRMT10C, tRNA methyltransferase of mitochondrial RNase P, UniProt Q7L0Y3, residues 40-403; The subcomplex was purified on a HisTrap column; also called MTase; source: E. coli BL21(DE3) Rosetta, co-expressed with SDR5C1, purified (HisTrap, SEC, heparin, SEC)
